Experimental data published in PMC9024361, “Pharmacokinetics, Tissue Distribution, Metabolism and Excretion of a Novel COX-2 Inhibitor, Vitacoxib, in Rats” (Frontiers in Veterinary Science, 2022).
Entries after “also recorded” stand apart in the source; their conditions may differ. Like-named read-outs stand apart in the source and are kept apart here. One block for each compound: values may come before it.

Columns and labels:
[1] = Metabolite identification in plasma, bile, urine and feces (UPLC Q-TOF MS); type: in vivo, Wistar rats; conditions: rats; for Source (matrices in which the metabolite was detected): single oral 18 mg/kg vitacoxib, Q-TOF MS; for Share of the metabolite in urinary and fecal excretion: urine and feces, not quantified
Procedure: Six male rats were placed in their own metabolic cages and orally administered a single dose of 18 mg/kg dose of vitacoxib (tablets crushed and dissolved in 0.5% CMC-Na, 6 mg/ml). Bile, fecal, and urine samples were collected from each animal in metabolic cages at 0~8, 8~23, 23~32, 32~48, 48~58, 58~72, 72~82, 82~96, and 96~128 h after administration. The total weight of urine and feces was recorded after collection. Feces samples were diluted with 3 volumes (v/w) of triple-distilled water and homogenized, and the homogenate was stored at −20°C until further analysis.
Chromatographic separation was performed using an ACQUITY UPLC^TM system (Waters Corporation, Milford, MA, USA). A Waters ACQUITY UPLC HSS T3 column (1.7 μm, 2.1 mm × 100 mm) was used for reversed-phase UPLC and the column temperature was maintained at 40°C. The flow rate of the mobile phase was 0.5 ml/min and the injection volume was 5 μl. Mobile phase A was 0.1% formic acid in water and mobile phase B was 0.1% formic acid in methanol. The column was eluted using a linear gradient (0 → 1 min, phase A 90%; 1 → 10 min, phase A 90% → 5%; 10 → 13.5 min, phase A 5% → 5%; and 13.5 → 15 min, phase A 5% → 90%).
MS analysis was performed using a Xevo G2-S Q-TOF mass spectrometer. The eluent was not shunted but injected directly into the mass analysis system in the positive-ion mode. The source temperature was set at 120°C. The flow rate of the desolvation gas was 800 L/h at a temperature of 500°C. The capillary voltage was set at 3 kV with 35 V as the cone voltage. Methods to analyze different tissues and samples were developed and validated in our lab. Data were analyzed using Metabolynx^TM software (version 4.1), which could automatically identify metabolites by comparing treatment samples with the respective controls.

[2] = Plasma pharmacokinetics after a single oral dose; type: in vivo; conditions: male, Wistar, rat, rats, single p.o. 18 mg/kg b.w., n = 5, plasma
Procedure: (§1) Five male rats were administered a single dose of vitacoxib (18 mg/kg) obtained by crushing and dissolving vitacoxib tablets in 0.5% CMC-Na (6 mg/ml). Blood samples (0.3 ml) were collected via a cannula directly into heparinized tubes before drug administration and 5, 15, 30 min, and 1, 2, 3, 4, 6, 8, 10, 12, 24, 36, and 48 h after drug administration. The samples were centrifuged at 2,280 × g for 10 min as soon as possible and stored at −20°C until further analysis (within 21 days).
Vitacoxib in plasma samples was analyzed using an established and validated UPLC-MS/MS (Waters Acquity UPLC and Water Quattro Premier, Waters Co., USA) method using a procedure previously described by our group ([18]). The lower limit of quantification was 0.5 ng/ml and the calibration range of the method was 0.5–1,000 ng/ml. Noncompartmental analysis was performed to determine the pharmacokinetic parameters, as appropriate, using WinNonlin^TM (version 6.4, Certara, Princeton NJ, USA) computational software.

[3] = test system: rats; assay: Observation of adverse effects after a single oral dose; type: in vivo, Wistar rats; conditions: single oral dose 18 mg/kg BW
Procedure: as §1

[4] = Tissue distribution after a single oral dose; type: in vivo, Wistar rats; conditions: rats
Procedure: Eighteen rats were administered a single oral dose (18 mg/kg BW) of vitacoxib (tablets crushed and dissolved in 0.5% CMC-Na, 6 mg/ml). Six rats were euthanized at each time point of 0.25, 6, and 24 h after dose administration. The brain, liver, heart, spleen, lungs, bladder, kidneys, gracilis muscle, gastrointestinal tract, large intestinal contents, small intestine, bone marrow, testes, epididymis, thymus gland, fat, and pancreas were collected and weighed. Each sample was diluted with 3 volumes (v/w) of triple-distilled water and homogenized, and the homogenate was stored at −20°C until further analysis. Vitacoxib in tissue samples was analyzed using UPLC-MS/MS by following a previously described procedure.

[5] = Urinary and fecal excretion of unchanged drug; type: in vivo, Wistar rats; conditions: rats
Procedure: Six male rats were placed in separate metabolic cages and administered a single oral dose of 18 mg/kg of vitacoxib (tablets were crushed and dissolved in 0.5% CMC-Na, 6 mg/ml). Urine and fecal samples were collected from each animal in metabolic cages at different time points at 2, 4, 6, 8, 10, 14, 24, 36, 48, 60, 72, 84, 96, 108, 120, 132, 144, 156, and 168 h after drug administration.
(§2) Eight male rats with bile-duct cannulation were administered 18 mg/kg of vitacoxib (tablets crushed and dissolved in 0.5% CMC-Na, 6 mg/ml). Rats were housed in metabolism cages and bile samples were collected at 2, 4, 6, 8, 10, 14, 24, 36, 48, 60, and 72 h after drug administration. All samples were stored at −20°C until further analysis. […] Vitacoxib in urine, fecal, and bile samples was determined via validation UPLC-MS/MS using the procedure described for blood ([18]).

[6] = Bile excretion of unchanged drug in bile-duct cannulated rats; type: in vivo, Wistar rats; conditions: single oral 18 mg/kg, 0~72 h
Procedure: as §2

[7] = test system: SD rats; set-up: method as in PMID 28238853, PMID 29601910; conditions: repeated dietary administration, cited from earlier work
[8] = test system: rats and mice; set-up: method as in PMID 30128300; conditions: cited from earlier work
[9] = test system: rabbits; set-up: method as in PMID 28959651; conditions: cited from earlier work
[10] = test system: guinea pigs; set-up: method as in PMID 28959651; conditions: cited from earlier work
[11] = set-up: method as in PMID 30076623; conditions: horses, 0.1 mg/kg bw; cited from earlier work
[12] = test system: COX-2; set-up: method as in doi:10.11669/cpj.2013.20.011; conditions: dogs, preclinical trials; cited from earlier work
[13] = test system: COX-2; set-up: method as in doi:10.11669/cpj.2013.20.011; conditions: rats, preclinical trials; cited from earlier work
[14] = test system: Sprague Dawley (SD) rats; conditions: rat, in vivo; cited from earlier work
[15] = test system: Institute of Cancer Research (ICR) mice; conditions: mouse, in vivo; cited from earlier work
[16] = dog, in vivo, 2 mg/kg; cited from earlier work

Source (matrices in which the metabolite was detected) [1]: Bile, feces, and urine | Share of the metabolite in urinary and fecal excretion ([1]; listed as carboxylic acid derivative): major metabolite | Share of the metabolite in urinary and fecal excretion ([1]; listed as carboxylic acid metabolite): primary metabolite
SMILES: CS(=O)(=O)c1ccc(-n2cnc(Cl)c2-c2ccc(C(=O)O)cc2)nc1 [M2, 4-(4-chloro-1-(5-(methylsulfonyl)pyridin-2-yl)-1H-imidazol-5-yl) benzoic acid]

SMILES: Cc1ccc(-c2c(Cl)ncn2-c2ccc(S(C)(=O)=O)cn2)cc1 [vitacoxib, 2-(4-chloro-5-p-tolyl-1H-imidazol-1-yl)-5-(methylsulfonyl) pyridine]
Tmax ([2]; plasma, 18 mg/kg): ~5 h | AUC(0-inf) ([2]; 0 to infinity, read-out: AUCINF_obs): 4930 ± 588 ng·h/mL | AUC(0-t) ([2]; 0 to last point): 4900 ± 604 ng·h/mL | k el ([2]; noncompartmental, read-out: λz (elimination rate constant) (converted)): 4.44e-05 s⁻¹ | Cmax ([2]; read-out: Cmax (maximum plasma concentration)): 450 ± 96.2 ng/mL | MRT last ([2]; read-out: MRTlast (mean residence time)): 8.09 ± 1.72 h | half-life ([2]; read-out: T1/2λz (elimination half-life) (converted)): 4.25 ± 0.3 h | Adverse effects [3]: No obvious or serious adverse effects; also recorded: no adverse effects | Crossing of the intestinal barrier ([4]; single oral dose 18 mg/kg BW): could cross the intestinal barrier | Time by which vitacoxib was detected in most tissues ([4]; single oral dose 18 mg/kg BW): ≤ 15 min | Concentration in most tissues by 24 h after administration ([4]; single oral dose 18 mg/kg BW, 24 h): below the limit of detection | Presence in brain / crossing of blood-brain barrier ([4]; single oral dose 18 mg/kg BW, 18 mg/kg): found in the brain; also recorded: cross the blood-brain barrier | Order of AUC(0~24h) values in different tissues ([4]; single oral gavage dose 18 mg/kg bw): gastric contents > large intestinal contents > small intestinal contents > stomach > large intestine > pancreas > liver > small intestine > fat > lungs > spleen > brain > plasma > testes > kidneys > spinal cord > thymus > bones > heart > spermatic > skeletal muscles > bladder | Cumulative excretion in feces in unaltered form ([5]; single oral 18 mg/kg, 0~168 h): 4.7334% ± 1.6645% | Cumulative excretion in urine in unaltered form ([5]; single oral 18 mg/kg, 0~168 h): 0.0135% ± 0.0053% | Dose recovered in the urine or feces as the parent drug ([5]; single oral dose): < 5% | Cumulative excretion in bile in unaltered form [6]: 0.0261% ± 0.00627% | No-observed-adverse-effect-level (90 days) ([7]; 90 days): 20 mg/kg | No-observed-adverse-effect-level (180 days) ([7]; 180 days): 6 mg/kg BW/day | Mutagenicity [8]: No mutagenicity or teratogenicity | Teratogenicity [8]: No mutagenicity or teratogenicity | Skin irritation [9]: does not cause skin irritation | Skin sensitization [10]: does not cause skin irritation in rabbits or skin sensitization | T1/2λz [11]: 7.39 ± 4.17 h | COX-2 inhibition (specificity) [12]: specifically inhibits COX-2 | COX-2 inhibition (specificity) [13]: specifically inhibits COX-2 | Oral LD50 [14]: > 5,000 mg/kg body weight (BW) | Oral LD50 [15]: > 5,000 mg/kg body weight (BW) | T1/2λz [16]: 5. 87 ± 3. 37 h

Source (matrices in which the metabolite was detected) [1]: Plasma, bile, feces, and urine | Share of the metabolite in urinary and fecal excretion [1]: minor amount of the dose
SMILES: CS(=O)(=O)c1ccc(-n2cnc(Cl)c2-c2ccc(CO)cc2)nc1 [M1]
